Values of other authors, collected in US7175830B2, “Imaging of drug accumulation as a guide to antitumor therapy” (The United States of America as represented by the …, priority 1999, dated 2007).

Conditions: circulates in the body; higher than SN-38, the active form

Q: Which “circulating concentration relative to that of its metabolite SN-38” value does the source give for CCc1c2c(nc3ccc(OC(=O)N4CCC(N5CCCCC5)CC4)cc13)-c1cc3c(c(=O)n1C2)COC(=O)[C@]3(O)CC [Irinotecan] here?
A: about 100 fold
